“Also recorded” adds a separate entry of the source.
Assays:
[1] = cited from earlier work
[2] = tested on: Bovine pulmonary aorta endothelial cells (BPAEC); test: Retention of fluorescence in fixed cells (Example 66); type: cell-based; details: 3.7% formaldehyde 30 minutes, 0.2% Triton X-100 30 minutes
[3] = tested on: Bovine pulmonary aorta endothelial cells (BPAEC); test: Glutathione adduct formation and fate of substrate in cultured animal cells, HPLC (Example 66); type: cell-based; details: for GSH adduct formation in cells: 37° C., HPLC
Procedure: The solutions are mixed overnight with three volumes of ethyl acetate followed by centrifugation at 15,000×g for 30 min to separate the organic and aqueous layers. HPLC analysis using a Rainin HPLC equipped with a C18, 5 μm, 100 Å, 4.6×250 mm MICROSORB-MV reverse phase column. […] Products are detected by reading the absorbance at 500 nm.
Bovine pulmonary aorta endothelial cells (BPAEC) are removed from flasks by trypsinization and washed into fresh complete growth medium to yield 10^6 cells/mL. […] Other aliquots of the cell suspension are loaded with the same substrates for 1 hour, rinsed into fresh complete medium, then incubated in the absence of substrate for an additional 3 hr at 37° C. to look for retention and efflux of fluorescent products. At the end of each incubation period the cells are removed by centrifugation and the supernate is retained. The cell pellets are resuspended in 1 mL of E-Pure water and subjected to three freeze-thaw cycles (-80° C. to 37° C.).

[4] = tested on: CRE BAG 2 cells; test: Marker gene expression by flow cytometry, CRE BAG 2 (Example 62); type: cell-based; details: 0.2 mM dye, 37° C., 30 minutes
Procedure: NIH-3T3 and CRE BAG2 cells are maintained as in Example 61. A 10 mM stock solution of (((3 -(2-pentafluorobenzoyl)amino)ethyl)amino)carbonyl)-umbelliferyl β-D-galactopyranoside (Compound 37; Example 37) is prepared in DMF. A 10 mM stock solution of 4-chloromethylcoumarin β-D-galactopyranoside (CMCG; Molecular Probes #D-2921) is prepared in a 1:1 mixture of DMSO and water. NIH-3T3 and CRE BAG2 cells are trypsinized, washed with phosphate buffered saline (PBS), pH 7.2 and resuspended in D-MEM with 10% BCS. To separate 1 mL cell suspensions are added the dye stock solutions to obtain final concentrations of 0.2 mM dye. Incubation is carried out at 37° C. for 30 minutes. Cells are centrifuged to form a pellet, the supernatant is discarded and the cells are washed twice with PBS, pH 7.2 and suspended in the same buffer. Cells are analyzed by flow cytometry using a Becton-Dickinson FACS Vantage flow cytometer. […] However, CRE BAG 2 cells stained with the Compound 37 show fluorescence that is greater than 25-fold that shown by autofluorescent control cells. For the CRE BAG 2 cells stained with CMCG, the fluorescence intensity is only 8-fold greater than that of the autofluorescent control cells.

[5] = tested on: 3T3 or BPAE cells; test: Intracellular products of tracers by TLC and HPLC (Example 67); type: cell-based; details: 5 μM, 1 hr, 37° C.
Procedure: Reaction mixtures with and without GST using Compound 1 as the substrate, are prepared as described in Example 48. The solutions are mixed overnight with three volumes of ethyl acetate followed by centrifugation at 15,000×g for 30 min to separate the organic and aqueous layers. HPLC analysis using a Rainin HPLC equipped with a C18, 5 μm, 100 Å, 4.6×250 mm MICROSORB-MV reverse phase column. Products are separated in 30 min with a gradient of 5% to 95% solvent B in Solvent A at a flow rate of 1 mL/min, where solvent A is 0.1M triethylammonium acetate, pH 7.0, and solvent B is acetonitrile (see FIG. 1). Products are detected by reading the absorbance at 500 nm. Peaks are identified and, if desired, quantitated by comparing retention times with authentic samples of the glutathione adduct of Compound 45 (Example 45).
(§1) Cultures of either 3T3 or BPAE cells are treated with 5 μM solutions of either Compound 4,5-(pentachlorobenzoylamino)fluorescein diacetate, 5-pentafluorobenzenesulfonylamino)fluorescein diacetate, or 5-chloromethylfluorescein diacetate (CMFDA, Molecular Probes, Inc.) for 1 hr at 37° C. The cells are spun, resuspended in distilled water and lysed by repeated freezing and thawing. 20 μL of the cell lysate supernatant is diluted with 30 μL of SDS-PAGE sample buffer, containing β-mercaptoethanol. The cell pellets are dispersed in 50 μL of water. 20 μL of each sample is added to 30 μL of the same sample buffer. The samples are heated at 95° C. for 5 min. and loaded on 4-20% polyacrylamide gradient minigels. At the completion of the run the gels are observed with UV excitation.
Alternatively, the above samples are analyzed by TLC and by HPLC, as described in Examples 48 and 52. […] Coinjection with authentic Compound 1 confirms the identity of the substrate peak and coinjection with the authentic Compound 1-GSH adduct (Example 45) confirms the identify of the other fluorescent product.

[6] = tested on: 3T3 or BPAE cells; test: Intracellular products of tracers by gel electrophoresis (Example 67); type: cell-based; details: 5 μM, 1 hr, 37° C.
Procedure: as §1

[7] = tested on: β-galactosidase; test: Reactivity with thiol groups of proteins (Example 51); type: biochemical
Procedure: To test the specificity of the Compound 1 reaction with GSH versus thiol-containing proteins, β-galactosidase (a protein that has several free thiols) is dissolved at 5 mg/mL in deoxygenated 0.1M phosphate, 0.1M NaCl, pH 7.5, and reacted under anaerobic conditions with 5-(pentafluorobenzoylamino)fluorescein diacetate (Compound 4, Example 3) or Compound 1 dissolved at 10 mg/mL in DMSO at a molar ratio of the reagent to protein of 15. This assay is performed both in the presence and absence of 30 mM N-ethyl maleimide (NEM) as an effective thiol-blocking reagent. The reactions are incubated at room temperature for 1 hour, stopped by the addition of hydroxylamine, pH 9 to a final concentration of 0.15M, and incubated for 2 more hours to hydrolyze the acetate groups. […] Consequently, no reaction of either Compound 4 or Compound 1 with β-galactosidase is detected under the described conditions.

[8] = tested on: NIH-3T3 cells; test: Hydrolysis of esterase substrates and product retention in live cells, flow cytometry (Example 65); type: cell-based
Procedure: NIH-3T3 cells obtained from American Type Culture Collection Co., Rockville, Md. are used. They are grown in a humidified atmosphere of 5% CO2 in D-MEM supplemented with 10% bovine calf serum (BCS), 50 μg/mL gentamycin, 300 μg/mL L-glutamine and 10 mM HEPES, pH 7.4. Stock solutions of Compound 4 (Example 3), 10 mM in DMSO, and Compound 48 (Example 50), 5 mM in DMSO, are prepared. NIH-3T3 cells are trypsinized, washed with phosphate-buffered saline (PBS), pH 7.2 and resuspended in D-MEM with 10% BCS. To 1 mL of the cell suspension is added the dye stock solution to obtain a final dye concentration of 0.1 mM. Incubation is carried out at 37° C. for 30 minutes followed by incubation on ice for 30 minutes. Cells are centrifuged to form a pellet, the supernatant is discarded and the cells are washed twice with PBS, pH 7.2 and suspended in the same buffer. Cells are analyzed by flow cytometry using the Becton-Dickinson FACS Vantage flow cytometer. After analysis on the flow cytometer, cells are placed at 37° C. and analyzed by flow cytometry at frequent intervals over a period of 75 minutes. Cells stained with either of the dyes are at least 20-fold brighter than the autofluorescent control cells. Approximately 45% of Compound 4 and 35% of Compound 48 are still retained by the cells after 75 minutes of incubation at 37° C.

[9] = 15 min, 5 μM substrate, continuous
[10] = 1 hr, washed, then additional 3 hr at 37° C.
[11] = 4 hrs, 5 μM substrate, continuous

## O=[N+]([O-])c1ccc(Cl)c([N+](=O)[O-])c1 [1-Chloro-2,4-dinitrobenzene]
[1]
  reaction with GSH in the presence of GST enzymes: react specifically with GSH in the presence of GST enzymes

## O=S1(=O)OC(c2cc(Br)c(O)c(Br)c2)(c2cc(Br)c(O)c(Br)c2)c2ccccc21 [tetrabromophenolsulfonephthalein]
[1]
  reaction with GSH in the presence of GST enzymes: react specifically with GSH in the presence of GST enzymes

## CC(=O)Oc1ccc2c(c1)Oc1cc(OC(C)=O)ccc1C21OC(=O)c2cc(NC(=O)c3ccccc3)ccc21 [Compound 5, 5-(benzoylamino)fluorescein diacetate]
[2]
  fluorescence after fixation and permeabilization: essentially nonfluorescent
[3]; 5 μM substrate
  GSH adduct formation in cells: does not
[3]; [9]
  EXTRACELLULAR Free dye: 4829 relative fluorescence units
  EXTRACELLULAR Free dye, fraction of total fluorescence: 91.5%
  INTRACELLULAR Free dye: 450 relative fluorescence units
  INTRACELLULAR Free dye, fraction of total fluorescence: 8.5%
[3]; [10]
  EXTRACELLULAR Free dye: 469 relative fluorescence units
  EXTRACELLULAR Free dye, fraction of total fluorescence: 100%
[3]; [11]
  EXTRACELLULAR Free dye: 8627 relative fluorescence units
  EXTRACELLULAR Free dye, fraction of total fluorescence: 99.1%
  INTRACELLULAR Free dye: 78 relative fluorescence units
  INTRACELLULAR Free dye, fraction of total fluorescence: 0.9%
[3]; washed at one hour then incubated additional 3 hours
  hydrolysis product detectable in washed cells: not detectable

## O=c1cc(CCl)c2ccc(O[C@@H]3O[C@H](CO)[C@H](O)[C@H](O)[C@H]3O)cc2o1 [CMCG, 4-chloromethylcoumarin β-D-galactopyranoside, reference compound]
[4]
  fluorescence relative to autofluorescent control cells: 8 fold

## CC(=O)Oc1ccc2c(c1)Oc1cc(OC(C)=O)ccc1C21OC(=O)c2cc(NC(=O)c3c(F)c(F)c(F)c(F)c3F)ccc21 [Compound 4, 5-(pentafluorobenzoylamino)fluorescein diacetate]
[5]; HPLC
  products by HPLC: two peaks
[5]; TLC
  products by TLC: formation of a GSH adduct
[6]
  fluorescent bands on gel (region of the tracking dye): Two closely spaced green fluorescent bands
  protein adduct bands on gel: No other band corresponding to proteins is visible
[7]; molar ratio of reagent to protein 15
  fluorescent proteins formed, gel electrophoresis: no fluorescent proteins are formed
[7]; molar ratio of reagent to protein 15, pH 7.5, 1 hour, with and without 30 mM NEM
  reaction with β-galactosidase, TLC: no reaction
[8]; 0.1 mM dye, 37° C., 30 minutes then on ice 30 minutes
  brightness versus autofluorescent control cells: at least 20 fold
[8]; after 75 minutes of incubation at 37° C.
  dye retained by the cells: Approximately 45%
[2]
  fluorescence after fixation and permeabilization: appreciably fluorescent
[3]; 5 μM substrate
  GSH adduct formation in cells: hydrolyzed and conjugated to glutathione; also recorded: gives rise to glutathione (GSH) adducts
[3]; [9]
  EXTRACELLULAR Free dye: 3350 relative fluorescence units
  EXTRACELLULAR Free dye, fraction of total fluorescence: 89.2%
  EXTRACELLULAR GSH adduct: 97 relative fluorescence units
  EXTRACELLULAR GSH adduct, fraction of total fluorescence: 2.6%
  INTRACELLULAR Free dye: 237 relative fluorescence units
  INTRACELLULAR Free dye, fraction of total fluorescence: 6.3%
  INTRACELLULAR GSH adduct: 72 relative fluorescence units
  INTRACELLULAR GSH adduct, fraction of total fluorescence: 1.9%
[3]; [10]
  EXTRACELLULAR Free dye: 361 relative fluorescence units
  EXTRACELLULAR Free dye, fraction of total fluorescence: 85.3%
  EXTRACELLULAR GSH adduct: 62 relative fluorescence units
  EXTRACELLULAR GSH adduct, fraction of total fluorescence: 14.7%
  INTRACELLULAR Free dye: < 1 relative fluorescence units
  INTRACELLULAR Free dye, fraction of total fluorescence: < 0.2%
  INTRACELLULAR GSH adduct: < 1 relative fluorescence units
  INTRACELLULAR GSH adduct, fraction of total fluorescence: < 0.2%
[3]; [11]
  EXTRACELLULAR Free dye: 4498 relative fluorescence units
  EXTRACELLULAR Free dye, fraction of total fluorescence: 86.8%
  EXTRACELLULAR GSH adduct: 642 relative fluorescence units
  EXTRACELLULAR GSH adduct, fraction of total fluorescence: 12.4%
  INTRACELLULAR Free dye: 23 relative fluorescence units
  INTRACELLULAR Free dye, fraction of total fluorescence: 0.4%
  INTRACELLULAR GSH adduct: 21 relative fluorescence units
  INTRACELLULAR GSH adduct, fraction of total fluorescence: 0.4%

From patent publication US5773236A, “Assay for glutathiane transferase using polyhaloaryl-substituted reporter molecules” (Molecule Probes, Inc., priority 1997, dated 1998)
